From patent US7169762B2, “Substance having physiological property, method for producing the same and uses thereof” (Amino Up Chemical Co., Ltd., priority 2001, dated 2007)

Tests used:
TNF-α and IFN-γ = test: cytokine concentrations in supernatant of LPS-stimulated macrophage (PEC) culture after oral administration to mice; type: in vivo, mouse; details: 1 g/kg oral for 1 week, C57/BL6 mice; PEC macrophages + LPS 100 ng/ml, 4 hours
Protocol: (§1) The physiological activity assays were performed by forcibly administering 1 g/kg of a sample to 6-week age male C57/BL6 mice for 1 week by oral route. Spleen cells and peritoneal exudate cells (PEC) were collected after sacrificing the animals. They were cultivated and assayed TNF-α, IFN-γ, and IL-2.
PEC (peritoneal exudate cells) collected from mouse abdominal cavity with physiological saline were centrifuged, (1,000 rpm, 10 minutes) to collect cells, which were used as macrophages. To the macrophages LPS (lipopoly saccharide) was added at a final concentration of 100 ng/ml and the cells were cultivated. After 4 hours, TNF-α, IFN-γ, and IL-2 in the culture supernatant were assayed.
(§2) For both a) and b) above, a kit for assaying cytokine (Wako Pure Chemical Industries, Ltd.) was used.

TNF-α, IFN-γ and IL-2 = test: cytokine concentrations in supernatant of ConA-stimulated spleen cell culture after oral administration to mice; type: in vivo, mouse; details: 1 g/kg oral for 1 week, C57/BL6 mice, IL-2 in culture supernatant (FIGS. 1 to 3)
Protocol: as §1
The collected mouse spleen was homogenized in DMEM medium and the homogenate was centrifuged at 4° C. (1,000 rpm, 5 minutes) To this was added ASK lysis buffer and the mixture was incubated (37° C., 3 minutes) in order to remove erythrocytes, followed by centrifugation (1,000 rpm, 5 minutes). To the spleen cells thus collected was added ConA at a final concentration of 10 μg/ml and cultivated in a microplate. After 15 hours, the culture supernatant was collected for assaying TNF-α, IFN-γ, and IL-2.
as §2

CC(=O)c1occc1OC1OC(CO)C(O)C(O)C1O [substance A, 2-acetyl-3-hydroxyfuran 3-O-α-D-glucopyranoside]
cytokine induction ability, macrophage (TNF-α and IFN-γ): high cytokine induction ability | cytokine induction ability (TNF-α, IFN-γ and IL-2): considerable cytokine induction ability
